Laboratory results: US4315017A, “Triazole derivatives” (priority 1978, dated 1982)
Several values for one entry are separate records, joined by “and”; a condition that tells them apart may be missing. Identical values can stand only once.

Tests used:
Format in all cases: in vivo
[1] = system: oriental cockroaches (Blatta orientalis); experiment: Synergistic action on oriental cockroaches, treated jar bottom; conditions: single substance; kill rate after 48 hours
Method: Synergistic action on oriental cockroaches (Blatta orientalis)
After the solvent has evaporated, 5 adult cockroaches (Blatta orientalis) are placed in each jar, and the kill rate is determined after 48 hours.
The application rates are in logarithmic progression and permit a dose-effect curve to be drawn; the LD50 is determined graphically and serves as a basis for assessment.

[2] = system: granery weevils (Sitophilus granarius); experiment: Synergistic action on granary weevils (treated Petri dishes); conditions: single substance; 4 hours exposure, kill rate after 24 hours
Method: Synergistic action on granery weevils (Sitophilus granarius)
Petri dishes 10 cm in diameter are lined with acetonic solutions of the active ingredients. After the solvent has evaporated, 50 granary weevils are placed in each dish.
After 4 hours, the weevils are transferred to untreated vessels. The kill rate is determined after 24 hours, by counting how many weevils are, after this period has elapsed, capable of leaving an untreated cardboard dish (40 mm in diameter, 10 mm high) within 60 minutes.

[3] = system: houseflies (Musca domestica); experiment: Synergistic action on houseflies; continuous contact (Petri dish); conditions: single substance; kill rate after 4 hours
Method: Synergistic action on houseflies (Musca domestica); continuous contact
Both covers and bottoms of Petri dishes 10 cm in diameter are lined with a total per dish of 2 ml of acetonic solutions of the active ingredients. After the solvent has evaporated (about 30 mins.), 10 flies are introduced into each dish.
The kill rate is determined after 4 hours and the LD50 is determined graphically.

[4] = system: houseflies (Musca domestica); experiment: Synergistic action on houseflies, dip experiment; conditions: single substance; active ingredient concentration in %
Method: Synergistic action on houseflies (Musca domestica; dip experiment)
100 ml of aqueous active ingredient formulations (active ingredient concentration in %) is poured over 20 adult houseflies (Musca domestica) on a filter in a nutsch (15 cm in diameter). A gauze lid prevents the animals from surfacing during treatment. After 5 seconds the formulation is filtered off and the flies are transferred to clean Petri dishes (10 cm in diameter) on the bottom of which a round filter paper has been placed.
The animals in supine position are counted after 4 and 24 hours.

[5] = system: houseflies (Musca domestica); experiment: Contact action on houseflies (application to ventral abdomen); conditions: single substance; kill rate after 4 hours
Method: Contact action on houseflies (Musca domestica)
1 μl of the active ingredient dissolved in acetone is administered to the ventral abdomen of 4-day old imagoes under slight CO2 narcosis. 20 animals treated in the same way are then placed in a cellophane bag having a volume of approximately 500 ml.
After 4 hours the kill rate is determined, a dose-mortality curve is drawn from the different concentrations, and the LD50 is worked out.

| Molecule | LD 50 [1] [mg] | LD 50 [2] | LD 50 [3] [mg] | LD 50 after 4 hours [4] [%] | LD 50 after 24 hours [4] [%] | LD 50 [5] [μg/fly] |
| --- | --- | --- | --- | --- | --- | --- |
| 2,5-diethylphenyl-N-methylcarbamate [Fenethcarb, reference compound] | 0.45 |  |  |  |  |  |
| C=CCC1=C(C)C(OC(=O)C2C(C=C(C)C)C2(C)C)CC1=O (mixture of isomers) [Allethrin, DL-2-allyl-3-methylcyclopenten-2-on-(1)-yl-(4)-DL-cis,trans-chrysanthemate, reference compound] | 0.11 |  |  |  |  |  |
| CCOC(=O)CC(SP(=S)(OC)OC)C(=O)OCC (centres unmarked) [Malathion, reference compound] | 0.12 |  |  |  |  |  |
| ClC(Cn1cncn1)c1ccccc1 (centres unmarked) [No. 1] | > 5.0 | > 2 mg and > 1 mg | > 2.0 | 0.085 | 0.05 |  |
| ClC(Cn1cncn1)c1ccccc1 (centres unmarked) [No. 2] | > 5.0 |  | 0.2 | > 0.2 | 0.1 |  |
| Clc1ccc(C=Cn2cncn2)c(Cl)c1 [No. 3] | > 5.0 |  |  | 0.2 | 0.05 |  |
| Fc1ccc(C=Cn2cncn2)cc1 [No. 4] | > 5.0 |  | > 2.0 |  |  |  |
| c1ccc(CCCn2cncn2)cc1 [No. 5] | > 2.0 | > 2 mg |  | > 0.2 | 0.05 | > 10 |
| C(=Cc1ccccc1)Cn1cncn1 [No. 6] | 9.0 | > 2 mg |  | > 0.2 | 0.07 |  |
| CC(c1ccccc1)n1cncn1 (centres unmarked) [No. 7] | > 2.0 |  |  |  |  |  |
| C=C(Cn1cncn1)c1ccccc1 [No. 8] | 9.0 | > 2 mg |  |  |  |  |
| Cc1ccc(Cn2cncn2)cc1 [No. 9] | > 2.0 | > 4 mg |  |  |  |  |
| CCc1ccc(Cn2cncn2)cc1 [No. 10] | > 2.0 | > 2 mg |  |  |  |  |
| CC(C)(C)c1ccc(Cn2cncn2)cc1 [No. 11] | > 10.0 | > 2 mg |  |  |  |  |
| Cc1nc(N(C)C)nc(OC(=O)N(C)C)c1C [Pirimicarb, 2-dimethylamino-5,6-dimethyl-4-pyrimidinyl-N,N-dimethylcarbamate, reference compound] | > 30 |  |  | 0.05 | 0.04 |  |
